Measurements published in patent US12297235B2, “Synthetic peptide compounds and methods of use” (REALTA HOLDINGS, LLC, priority 2015, dated 2025).
“Also recorded” adds a separate entry of the source.

How the values were obtained:
HSV-1 = test: HSV-1-GFP infection of CV-1 cells, flow cytometry; format: cell-based; conditions: 16 hours
Experimental: CV-1 cells were infected with HSV-1-GFP for 16 hours. Post-infection, CV-1 cells were detected by flow cytometry (FIG. 33). […] Acyclovir (the standard of care for severe HSV-1 infections) was also added as a control at the same molar ratio.

[1] = tested on: complement-mediated hemolysis of transfused huRBCs; test: Rat AIHTR model, xenotransfusion of human RBCs; format: in vivo, Wistar rat; conditions: prophylaxis; 40 mg PA-dPEG24 vs NS at 5 and 20 minutes (P≤0.05); CVF 130 μg i.p. 24 hours before
Experimental: This process generates 1 ml huRBCs at 80% hematocrit, which was given as a 15% transfusion to the rats.
For both experiments, animals allotted to the saline control group received NS prior to huRBC transfusion whereas the CVF group received 130 μg CVF (Complement Technologies, Inc.) intra-peritoneum (LP.) 24 hours prior to the huRBC transfusion.
Using weight-based doses of ketamine and acepromazine, animals were sedated throughout the course of the experiment with periodic monitoring of vital signs. Blood samples were collected into EDTA microtainer tubes (BD) from the animals prior to the huRBC transfusion and then at 30 seconds, 5 minutes, 20 minutes, 60 minutes and 120 minutes after the huRBC transfusion. […]
Flow cytometry was performed on the collected RBCs using a FACS Calibur flow cytometer (Becton Dickinson, Franklin Lakes, NJ) with DXP 8 Color 488/637/407 Upgrade (Cytek Development, Fremont, CA). […] Data was analyzed using FlowJo X version 10.0.7r2 (FlowJo LLC, Ashland, OR). […]
For bilirubin measurements, the pre-bleed and 120 minute plasma samples from the prophylaxis (n=8) and NS (n=7) groups were analyzed for the amount of bilirubin present using the Bilirubin Assay Kit (Sigma-Aldrich, St. Louis, MO) in half the manufacturer's recommend volume. […]

[2] = tested on: hypoxic ischemic brain injury; format: in vivo, Wistar rat; conditions: CVF injection before ligation/hypoxia

Nc1nc2c(ncn2COCCO)c(=O)[nH]1 [Acyclovir]
Inhibition of HSV-1 replication (HSV-1): never able to completely inhibit replication

cobra venom factor [CVF]
Free hemoglobin in plasma [1]: low levels of free hemoglobin | Systemic complement activity and brain injury [2]: almost completely eliminated; also recorded: almost completely attenuated brain injury
